The structures appear in SMILES notation.

Δε, Δn and γ1 data for one molecule are collected here from patent publication EP2593528B1, “LIQUID-C[…] WITH STABILIZER” (Merck Patent GmbH, priority 2010, dated 2012).

The nature of the data set: Liquid-crystalline properties of single compounds, determined at 10% in nematic host mixture ZLI-4792. The conditions noted are these: 10% in host mixture ZLI-4792. It counts as physicochemical. As for the experimental part:
Außerdem werden folgende Abkürzungen und Symbole verwendet: Vo Schwellenspannung, kapazitiv [V] bei 20°C, V10 optische Schwelle für 10 % relativen Kontrast [V] bei 20°C, ne außerordentlicher Brechungsindex bei 20°C und 589 nm, no ordentlicher Brechungsindex bei 20°C und 589 nm, Δn optische Anisotropie bei 20°C und 589 nm, ε⊥ dielektrische Suszeptibilität senkrecht zum Direktor bei 20°C und 1 kHz, ε∥ dielektrische Suszeptibilität parallel zum Direktor bei 20°C und 1 kHz, Δε dielektrische Anisotropie bei 20°C und 1 kHz, Kp., T(N,I) Klärpunkt [°C], γ1 Rotationsviskosität bei 20°C [mPa·s], K1 elastische Konstante, "splay"-Deformation bei 20°C [pN], K2 elastische Konstante, "twist"-Deformation bei 20°C [pN], K3 elastische Konstante, "bend"-Deformation bei 20°C [pN], LTS "low temperature stability" (Phase), bestimmt in Testzellen, ton Einschaltzeit [Transmissionsänderung von 10 % auf 90 %) bei 20 °C und definierter Operationsspannung, toff Ausschaltzeit [Transmissionsänderung von 90 % auf 10 %) bei 20 °C, RT Reaktionszeit (ton + toff) HR20 "voltage holding ratio" bei 20°C [%] und HR100 "voltage holding ratio" bei 100°C [%].
Alle physikalischen Eigenschaften werden und wurden nach "Merck Liquid Crystals, Physical Properties of Liquid Crystals", Status Nov. 1997, Merck KGaA, Darmstadt, Deutschland bestimmt und gelten für eine Temperatur von 20°C und An wird bei 589 nm und Δε bei 1 kHz bestimmt, sofern nicht jeweils explizit anders angegeben.
Die flüssigkristallinen Eigenschaften der Einzelverbindungen werden, soweit nicht anders angegeben, in der nematischen Wirtsmischung ZLI-4792 (kommerziell erhältlich von Merck KGaA, Darmstadt) bei einer Konzentration von 10% bestimmt.

For `CCCc1ccc(-c2cc(F)c(-c3ccc(C)s3)c(F)c2)cc1` [PUS-3-1, 2-(3,5-Difluor-4'-propyl-biphenyl-4-yl)-5-methyl-thiophen], the Δε entry (dielectric anisotropy at 20°C and 1 kHz) is reported as “+3,1”. Besides, under “optical anisotropy at 20°C and 589 nm”, the Δn is listed as 0,3055. For the same molecule, the γ1 (rotational viscosity at 20°C) was found to be 102 mPa·s.
